Biological target: T1, human CA9 (Homo sapiens, UniProt Q16790)
T1 construct: purchased SinoBiological
Assay: Intermolecular interaction against human CA9 by surface plasmon resonance (SPR)
Assay type: binding
Details: Human CA9-Fc captured on Protein A sensor chip, Single Cycle Kinetics, KD values only in Tables 7, 8 (images)
Protocol: The intermolecular interactions of the peptides against human CA9 protein were examined by surface plasmon resonance (SPR) for the various peptides or conjugates synthesized in Examples 1 and 2, according to the methods described below. Specific test methods are described below.
Protein A sensor chip (Cytiva) was inserted into BiacoreT200 (Cytiva) and primed with running buffer: 1× HBS-P+ (Cytiva), 1.0 % DMSO (Fujifilm Wako Pure Chemical Corporation), and 50 µM zinc acetate dihydrate (Hampton research), and equilibrated at a flow rate of 30 µL/min. 50 nM Human CA9-Fc (SinoBiological) diluted with running buffer was reacted at a flow rate of 5 µL/min for 60 seconds and captured into a flow cell.
A solution containing each peptide or conjugate synthesized in Example 1 or 2 and prepared at 1 mM in DMSO solution was diluted with running buffer to a final concentration of 100 nM. Then, the peptide or conjugate solutions at 25 nM and 5 nM were further prepared. Depending on the affinity of the peptide or conjugate, the solution was diluted with running buffer to a final concentration of 40 nM. […]
Using the above samples, the kinetics of each peptide or conjugate against human CA9 was obtained by SPR measurement. […] The binding of each peptide or conjugate to human CA9 was evaluated by performing least-squares curve fitting on the obtained sensorgram to calculate the KD value.

For “C1Ac-da-Tbg-3Py6CON-Hgl-Meda-Ahp-PeG-S-3Py6NH2-HseMe-dk-Y-MeC [SEQ ID No. 45]”, which “activity of binding to human CA9 (CA9 binding ability)” value is on record?
Its value is “possesses CA9 binding ability”.
